Source: ChEMBL document CHEMBL3297653, “2-Amino-7-substituted benzoxazole analogs as potent RSK2 inhibitors” (Bioorg Med Chem Lett, 2014)

Experiments:
Aurora kinase A = molecular target: T1, Aurora kinase A (Homo sapiens, UniProt O14965); experiment: Inhibition of aurora A (unknown origin)
T1 sequence (O14965 whole entry): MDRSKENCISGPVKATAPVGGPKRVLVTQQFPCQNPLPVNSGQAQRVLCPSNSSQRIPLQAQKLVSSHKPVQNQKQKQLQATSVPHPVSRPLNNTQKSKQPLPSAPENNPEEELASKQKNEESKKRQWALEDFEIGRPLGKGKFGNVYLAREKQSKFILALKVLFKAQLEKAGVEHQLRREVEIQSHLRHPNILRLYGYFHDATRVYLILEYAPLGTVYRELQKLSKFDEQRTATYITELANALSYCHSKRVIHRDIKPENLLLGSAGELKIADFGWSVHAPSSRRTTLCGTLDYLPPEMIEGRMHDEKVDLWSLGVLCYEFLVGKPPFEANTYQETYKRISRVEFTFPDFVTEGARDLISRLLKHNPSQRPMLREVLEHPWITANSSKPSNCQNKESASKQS

[1] = molecular target: Tyrosine-protein kinase JAK2 (Homo sapiens, UniProt O60674); experiment: Inhibition of JAK2 (unknown origin)
Tyrosine-protein kinase JAK2, sequence (O60674 whole entry): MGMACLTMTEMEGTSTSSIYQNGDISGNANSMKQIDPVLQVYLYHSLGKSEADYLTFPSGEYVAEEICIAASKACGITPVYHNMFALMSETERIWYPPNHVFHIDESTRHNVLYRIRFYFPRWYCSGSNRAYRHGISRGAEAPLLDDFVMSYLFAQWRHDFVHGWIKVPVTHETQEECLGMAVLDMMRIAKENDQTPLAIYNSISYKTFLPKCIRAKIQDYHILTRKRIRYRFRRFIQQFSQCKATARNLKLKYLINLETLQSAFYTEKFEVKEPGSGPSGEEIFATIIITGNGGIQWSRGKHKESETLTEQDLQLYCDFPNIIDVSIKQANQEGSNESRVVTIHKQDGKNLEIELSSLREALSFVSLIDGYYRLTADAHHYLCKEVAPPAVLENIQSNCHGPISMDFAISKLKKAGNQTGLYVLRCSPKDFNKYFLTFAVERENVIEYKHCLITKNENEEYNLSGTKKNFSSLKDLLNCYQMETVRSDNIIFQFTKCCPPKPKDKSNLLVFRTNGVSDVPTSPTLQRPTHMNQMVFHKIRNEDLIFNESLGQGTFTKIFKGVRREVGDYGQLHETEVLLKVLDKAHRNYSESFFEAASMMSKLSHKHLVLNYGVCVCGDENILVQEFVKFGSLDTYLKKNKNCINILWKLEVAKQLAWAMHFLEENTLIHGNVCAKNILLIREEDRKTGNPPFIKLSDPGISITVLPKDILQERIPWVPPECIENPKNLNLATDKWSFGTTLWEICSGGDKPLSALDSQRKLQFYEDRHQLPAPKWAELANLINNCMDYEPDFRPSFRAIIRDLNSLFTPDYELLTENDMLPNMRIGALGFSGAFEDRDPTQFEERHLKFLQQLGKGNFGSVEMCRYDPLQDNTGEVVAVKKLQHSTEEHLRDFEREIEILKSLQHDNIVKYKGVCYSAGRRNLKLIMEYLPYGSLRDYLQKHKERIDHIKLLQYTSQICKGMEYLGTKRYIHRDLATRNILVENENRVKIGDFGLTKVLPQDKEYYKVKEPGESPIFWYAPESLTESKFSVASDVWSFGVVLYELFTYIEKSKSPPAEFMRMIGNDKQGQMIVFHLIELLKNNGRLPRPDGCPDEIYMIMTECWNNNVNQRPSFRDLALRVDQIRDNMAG

MDA-MB-231 = experiment: Cytotoxicity against human MDA-MB-231 cells assessed as growth inhibition after 5 days by CellTitre-glo assay; format: functional, cell-based; conditions: MDA-MB-231, 120 h

COc1cc(Nc2nc3cccc(-c4cccc5[nH]cnc45)c3o2)cc(OC)c1OC
IC50 (Aurora kinase A): 600 nM | IC50 [1]: 460 nM | EC50 (MDA-MB-231): 580 nM
